Measured values: article PMC6321621, “Design of a Novel and Selective IRAK4 Inhibitor Using Topological Water Network Analysis and Molecular Modeling Approaches” (Molecules, 2018)

Tests used:
Format in all cases: biochemical
[1] = target: T1, IRAK4 (h) (Homo sapiens, UniProt Q9NWZ3); experiment: Enzymatic assay for IRAK4 (radiometric, Eurofins); details: for IC50: in vitro enzymatic assay, duplicate, average, read-out: IC50 against IRAK4
T1 construct: purchased Eurofins Scientific Inc. Korea (contract assay service)
T1 sequence (Q9NWZ3 1-460): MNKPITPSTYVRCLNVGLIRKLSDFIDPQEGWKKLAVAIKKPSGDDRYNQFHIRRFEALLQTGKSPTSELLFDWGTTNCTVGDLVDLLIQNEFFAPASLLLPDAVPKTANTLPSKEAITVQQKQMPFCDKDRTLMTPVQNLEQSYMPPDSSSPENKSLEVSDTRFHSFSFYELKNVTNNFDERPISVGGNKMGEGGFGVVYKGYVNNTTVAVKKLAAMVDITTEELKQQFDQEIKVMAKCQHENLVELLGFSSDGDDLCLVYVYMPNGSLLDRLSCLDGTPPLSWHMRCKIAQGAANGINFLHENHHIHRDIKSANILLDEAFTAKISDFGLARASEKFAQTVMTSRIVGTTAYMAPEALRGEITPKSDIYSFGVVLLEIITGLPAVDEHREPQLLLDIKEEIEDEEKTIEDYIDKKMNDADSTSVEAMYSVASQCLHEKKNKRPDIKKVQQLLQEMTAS
Experimental: (§1) Enzymatic assays for IRAK4, ASK1, ITK, and LYN were performed by Eurofins Scientific Inc. Korea (Brussels, Belgium). All assays were performed in duplicate, and the average IC50 value was reported.
(§2) IRAK4 (h) was incubated with 8 mM MOPS pH 7.0, 0.2 mM EDTA, 0.33 mg/mL myelin basic protein, 10 mM Mg acetate and [γ-^33P]-ATP (specific activity approx. 500 cpm/pmol, concentration as required). The reaction was initiated by the addition of a MgATP mix. After incubation for 40 min at room temperature, the reaction was stopped by the addition of 3% phosphoric acid solution. A total of 10 μL of the reaction was then spotted onto a P30 filtermat and washed three times for 5 min in 75 mM phosphoric acid, and once in methanol prior to drying and scintillation counting.

[2] = target: T2, LYN (h) (Homo sapiens, UniProt P07948); experiment: Enzymatic assay for LYN (radiometric, Eurofins); details: in vitro enzymatic assay, duplicate, average; read-out: IC50 against LYN
T2 construct: purchased Eurofins Scientific Inc. Korea (contract assay service)
Experimental: Enzymatic assays for IRAK4, ASK1, ITK, and LYN were performed by Eurofins Scientific Inc. Korea (Brussels, Belgium). All assays were performed in duplicate, and the average IC50 value was reported. LYN (h) was incubated with 50 mM Tris pH 7.5, 0.1 mM EGTA, 0.1 mM Na3VO4, 0.1% […], 0.1 mg/mL poly(Glu, Tyr) 4:1, 10 mM Mg acetate, and [γ-^33P]-ATP (specific activity approx. 500 cpm/pmol, concentration as required). The reaction was initiated by the addition of the MgATP mix. After incubation for 40 min at room temperature, the reaction was stopped by the addition of 3% phosphoric acid solution. A total of 10 μL of the reaction was then spotted onto a Filtermat A and washed three times for 5 min in 75 mM phosphoric acid, and once in methanol prior to drying and scintillation counting.

[3] = target: T3, ASK1 (h) (Homo sapiens, UniProt Q99683); experiment: Enzymatic assay for ASK1 (radiometric, Eurofins); details: in vitro enzymatic assay, duplicate, average; read-out: IC50 against ASK1
T3 construct: purchased Eurofins Scientific Inc. Korea (contract assay service)
T3 sequence (Q99683 1-1374): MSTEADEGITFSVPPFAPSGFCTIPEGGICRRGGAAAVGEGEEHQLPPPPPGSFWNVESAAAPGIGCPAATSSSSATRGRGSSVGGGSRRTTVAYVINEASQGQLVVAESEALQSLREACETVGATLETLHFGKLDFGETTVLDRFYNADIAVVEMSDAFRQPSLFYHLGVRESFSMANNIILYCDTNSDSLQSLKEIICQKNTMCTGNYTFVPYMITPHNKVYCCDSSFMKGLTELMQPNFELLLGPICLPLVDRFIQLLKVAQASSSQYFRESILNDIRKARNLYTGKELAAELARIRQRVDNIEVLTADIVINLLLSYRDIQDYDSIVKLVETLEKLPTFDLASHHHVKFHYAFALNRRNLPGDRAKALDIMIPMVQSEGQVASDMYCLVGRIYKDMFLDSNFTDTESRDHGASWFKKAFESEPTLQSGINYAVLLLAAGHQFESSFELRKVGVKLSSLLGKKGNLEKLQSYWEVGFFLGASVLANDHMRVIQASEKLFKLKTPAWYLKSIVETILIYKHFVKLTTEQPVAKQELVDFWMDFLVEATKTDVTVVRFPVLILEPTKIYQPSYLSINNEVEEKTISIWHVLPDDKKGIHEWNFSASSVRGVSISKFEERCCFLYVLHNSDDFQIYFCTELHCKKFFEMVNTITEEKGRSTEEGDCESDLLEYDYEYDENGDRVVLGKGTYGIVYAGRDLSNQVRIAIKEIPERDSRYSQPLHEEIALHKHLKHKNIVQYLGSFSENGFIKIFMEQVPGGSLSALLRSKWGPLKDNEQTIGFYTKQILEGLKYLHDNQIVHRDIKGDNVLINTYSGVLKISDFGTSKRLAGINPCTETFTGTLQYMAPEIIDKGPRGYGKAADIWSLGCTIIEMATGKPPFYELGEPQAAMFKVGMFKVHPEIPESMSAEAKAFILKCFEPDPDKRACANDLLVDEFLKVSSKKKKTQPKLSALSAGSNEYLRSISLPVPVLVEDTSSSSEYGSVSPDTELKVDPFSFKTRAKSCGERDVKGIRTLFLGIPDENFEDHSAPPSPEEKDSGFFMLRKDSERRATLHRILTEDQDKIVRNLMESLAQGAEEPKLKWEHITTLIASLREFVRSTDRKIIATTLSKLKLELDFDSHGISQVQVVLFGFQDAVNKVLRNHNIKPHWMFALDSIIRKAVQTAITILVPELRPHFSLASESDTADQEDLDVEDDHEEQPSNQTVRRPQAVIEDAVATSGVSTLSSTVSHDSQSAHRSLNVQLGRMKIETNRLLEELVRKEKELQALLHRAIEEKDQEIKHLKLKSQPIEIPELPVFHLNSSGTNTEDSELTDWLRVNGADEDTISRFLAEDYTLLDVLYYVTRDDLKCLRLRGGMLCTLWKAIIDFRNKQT
Experimental: as §1
as §2, with “ASK1 (h)” for “IRAK4 (h)”, “of the” for “of a”

[4] = target: T4, ITK (h) (Homo sapiens, UniProt Q08881); experiment: Enzymatic assay for ITK (radiometric, Eurofins); details: in vitro enzymatic assay, duplicate, average; read-out: IC50 against ITK
T4 construct: purchased Eurofins Scientific Inc. Korea (contract assay service)
T4 sequence (Q08881 1-620): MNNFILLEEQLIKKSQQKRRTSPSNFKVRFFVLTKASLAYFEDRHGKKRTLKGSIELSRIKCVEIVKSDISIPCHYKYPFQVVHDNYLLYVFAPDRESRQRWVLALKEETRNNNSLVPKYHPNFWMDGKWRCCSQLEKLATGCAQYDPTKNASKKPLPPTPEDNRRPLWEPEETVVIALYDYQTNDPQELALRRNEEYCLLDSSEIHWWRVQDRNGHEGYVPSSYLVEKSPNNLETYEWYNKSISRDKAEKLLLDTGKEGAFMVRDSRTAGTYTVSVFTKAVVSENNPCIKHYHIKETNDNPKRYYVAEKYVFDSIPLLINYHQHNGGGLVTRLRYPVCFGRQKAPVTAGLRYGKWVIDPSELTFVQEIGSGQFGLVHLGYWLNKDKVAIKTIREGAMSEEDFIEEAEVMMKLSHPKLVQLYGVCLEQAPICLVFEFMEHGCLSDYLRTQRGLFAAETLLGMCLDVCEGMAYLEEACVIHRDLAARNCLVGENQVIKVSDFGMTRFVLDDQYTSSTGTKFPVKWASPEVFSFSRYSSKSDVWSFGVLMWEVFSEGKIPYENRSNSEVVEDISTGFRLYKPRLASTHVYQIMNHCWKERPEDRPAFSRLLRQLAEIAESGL
Experimental: Enzymatic assays for IRAK4, ASK1, ITK, and LYN were performed by Eurofins Scientific Inc. Korea (Brussels, Belgium). All assays were performed in duplicate, and the average IC50 value was reported. ITK (h) was incubated with 8 mM MOPS pH 7.0, 0.2 mM EDTA, 0.33 mg/mL myelin basic protein, 10 mM Mg acetate, and [γ-^33P]-ATP (specific activity approx. 500 cpm/pmol, concentration as required). The reaction was initiated by the addition of the MgATP mix. After incubation for 40 min at room temperature, the reaction was stopped by the addition of 3% phosphoric acid solution. A total of 10 μL of the reaction was then spotted onto a P30 filtermat and washed three times for 5 min in 75 mM phosphoric acid, and once in methanol prior to drying and scintillation counting.

T2 sequence (P07948 whole entry): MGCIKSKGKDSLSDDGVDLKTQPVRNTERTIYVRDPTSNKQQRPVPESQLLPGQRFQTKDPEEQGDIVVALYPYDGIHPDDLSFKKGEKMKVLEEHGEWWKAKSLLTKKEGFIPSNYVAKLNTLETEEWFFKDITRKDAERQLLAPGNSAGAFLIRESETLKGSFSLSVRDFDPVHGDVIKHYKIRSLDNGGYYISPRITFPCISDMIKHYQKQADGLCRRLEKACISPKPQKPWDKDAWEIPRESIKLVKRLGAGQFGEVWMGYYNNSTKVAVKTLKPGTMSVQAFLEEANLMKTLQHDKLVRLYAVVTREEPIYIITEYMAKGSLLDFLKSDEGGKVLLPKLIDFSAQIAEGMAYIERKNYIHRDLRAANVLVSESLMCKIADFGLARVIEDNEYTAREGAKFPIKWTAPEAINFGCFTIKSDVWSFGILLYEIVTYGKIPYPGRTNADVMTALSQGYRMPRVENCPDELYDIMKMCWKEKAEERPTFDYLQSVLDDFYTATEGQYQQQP

4-(5-Benzylamino-imidazo[4,5-b]pyridine-1-yl)-benzonitrile [Compound 3]
inhibition of IRAK4 ([1]; at 10 μM): 97%
IC50 [1]: 158 nM

CC(C)(C)c1ccc(C(=O)Nc2cn3cc(-n4ccnc4)ccc3n2)cc1 [Compound 1]
IC50 [2]: 2390 nM
IC50 [3]: 53 nM
IC50 [1]: 187 nM
IC50 [4]: 1670 nM

COCc1nc2ccc(NC(=O)c3ccc(Br)o3)cc2[nH]1 [Compound 2]
IC50 [1]: 6650 nM
